Consider one compound from patent publication US7419780B2, “Methods and assays for screening protein targets” (The Trustees of Columbia University in the City of New York, priority 2000, dated 2008).

Type in all cases: cell-based, S. cerevisiae
Common to all, as to conditions: 1 uM small molecule, difference to activity without small molecule, average of two trials

Assay [1] addresses T1, LexA rGR2 / B42 (GSG)2eDHFR (UniProt P06536+P0ABQ4, C656G/F620S).
T1 construct: expressed in transfected cells; host or cells: S. cerevisiae FY250 with pMW106 lacZ reporter
T1 sequence (P06536 524-795 F620S/C656G limits assumed): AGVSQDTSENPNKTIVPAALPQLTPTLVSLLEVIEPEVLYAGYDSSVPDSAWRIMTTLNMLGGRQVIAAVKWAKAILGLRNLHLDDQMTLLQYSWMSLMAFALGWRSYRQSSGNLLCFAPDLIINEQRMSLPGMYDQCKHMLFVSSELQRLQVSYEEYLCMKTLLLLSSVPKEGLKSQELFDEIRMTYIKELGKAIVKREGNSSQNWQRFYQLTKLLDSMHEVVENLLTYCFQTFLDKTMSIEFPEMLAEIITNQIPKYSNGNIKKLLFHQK
T1 sequence (P0ABQ4 1-159): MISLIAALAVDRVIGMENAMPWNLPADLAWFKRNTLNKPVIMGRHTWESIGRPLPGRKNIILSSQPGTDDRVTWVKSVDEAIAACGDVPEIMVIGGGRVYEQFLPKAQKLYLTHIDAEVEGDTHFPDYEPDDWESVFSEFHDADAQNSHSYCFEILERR
Kind of assay: β-galactosidase activity assay, strain V509Y. An excerpt:
(§1) Table III explains the components of each strain. Each strain was constructed from the parent yeast strain FY250 and also contains the pMW106 plasmid, which has the LacZ reporter gene that is turned on only in when the LexA DNA binding domain and the B42 activation are brought in tot he vicinity of each other. We use several different strains because we use DHFR from two different species, mDHFR is from murine, while eDHFR is from E. coli. We are asl oable to switch the small moleculebinding domains. For example, the strain containing LexA-eDHFR with B42-rGH2 is a different strain and behaves differently from the strain containing LexA-rGR2 with B42-eDHFR. We also put in short 6 amino acid linkers between the two domains of our protein chimeras and thus these are different strain as well.
(§2) The results in Table IV are averages of two separate trials. Each strain was examined with small molecules and without small molecules. The absolute activity is given as the β-galactisidase activity […]. The average β-galactosidse activity for a strain without small molecule (i.e. the negative control) was about 100 β-galactosidase units.

The target of assay [2] is T2, LexA (GSG)2eDHFR / B42 gly6rGR2 (UniProt P06536+P0ABQ4, C656G/F620S).
T2 construct: rat Glucocorticoid Receptor (aa 524-795) with point mutations; expressed in transfected cells; host or cells: S. cerevisiae FY250
T2 sequence (P0ABQ4 1-159): T1 sequence (P0ABQ4 1-159)
T2 sequence (P06536 524-795 F620S/C656G limits assumed): T1 sequence (P06536 524-795 F620S/C656G limits assumed)
Kind of assay: β-galactosidase activity assay, strain V499Y.
Source text: as §1, §2

Assay [3] concerns the target T3, LexA rGR2 / B42 (GSG)2mDHFR (UniProt P00375+P06536, C656G/F620S).
T3 construct: expressed in transfected cells; host or cells: S. cerevisiae FY250 with pMW106 lacZ reporter
T3 sequence (P06536 524-795 F620S/C656G limits assumed): T1 sequence (P06536 524-795 F620S/C656G limits assumed)
T3 sequence (P00375 1-187): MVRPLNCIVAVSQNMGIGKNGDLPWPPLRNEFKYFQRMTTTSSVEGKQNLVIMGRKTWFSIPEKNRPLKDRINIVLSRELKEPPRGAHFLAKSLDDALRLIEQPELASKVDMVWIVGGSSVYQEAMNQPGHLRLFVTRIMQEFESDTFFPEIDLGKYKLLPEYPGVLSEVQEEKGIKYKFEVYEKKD
Kind of assay: β-galactosidase activity assay, strain V511Y.
Source text: as §1, §2

Assay [4] addresses T4, LexA mDHFR / B42 (GSG)rGR2 (UniProt P00375+P06536, C656G/F620S).
T4 construct: rat Glucocorticoid Receptor (aa 524-795) with point mutations; expressed in transfected cells; host or cells: S. cerevisiae FY250
T4 sequence (P00375 1-187): T3 sequence (P00375 1-187)
T4 sequence (P06536 524-795 F620S/C656G limits assumed): T1 sequence (P06536 524-795 F620S/C656G limits assumed)
The assay is described as follows: β-galactosidase activity assay, strain V497Y.
Source text: as §1, §2

For assay [5], the target named is T5, LexA mDHFR / B42 gly6rGR2 (UniProt P00375+P06536, C656G/F620S).
T5 construct: rat Glucocorticoid Receptor (aa 524-795) with point mutations; expressed in transfected cells; host or cells: S. cerevisiae FY250
T5 sequence (P00375 1-187): T3 sequence (P00375 1-187)
T5 sequence (P06536 524-795 F620S/C656G limits assumed): T1 sequence (P06536 524-795 F620S/C656G limits assumed)
Kind of assay: β-galactosidase activity assay, strain V496Y.
Source text: as §1, §2

Assay [6] has as its target T6, LexA eDHFR / B42 gly6rGR2 (UniProt P06536+P0ABQ4, C656G/F620S).
T6 construct: rat Glucocorticoid Receptor (aa 524-795) with point mutations; expressed in transfected cells; host or cells: S. cerevisiae FY250
T6 sequence (P0ABQ4 1-159): T1 sequence (P0ABQ4 1-159)
T6 sequence (P06536 524-795 F620S/C656G limits assumed): T1 sequence (P06536 524-795 F620S/C656G limits assumed)
The assay is described as follows: β-galactosidase activity assay, strain V375Y.
Source text: as §1, §2

Assay [7] has as its target T7, LexA eDHFR / B42 (GSG)rGR2 (UniProt P06536+P0ABQ4, C656G/F620S).
T7 construct: rat Glucocorticoid Receptor (aa 524-795) with point mutations; expressed in transfected cells; host or cells: S. cerevisiae FY250
T7 sequence (P0ABQ4 1-159): T1 sequence (P0ABQ4 1-159)
T7 sequence (P06536 524-795 F620S/C656G limits assumed): T1 sequence (P06536 524-795 F620S/C656G limits assumed)
The assay is described as follows: β-galactosidase activity assay, strain V494Y.
Source text: as §1, §2

Another assay has as its target T8, LexA rGR2 / B42 eDHFR (UniProt P06536+P0ABQ4, C656G/F620S).
T8 construct: rat Glucocorticoid Receptor (aa 524-795) with point mutations; expressed in transfected cells; host or cells: S. cerevisiae FY250
T8 sequence (P06536 524-795 F620S/C656G limits assumed): T1 sequence (P06536 524-795 F620S/C656G limits assumed)
T8 sequence (P0ABQ4 1-159): T1 sequence (P0ABQ4 1-159)
The assay is described as follows: β-galactosidase activity assay, strain V505Y.
Source text: as §1, §2

Assay [8] addresses T9, LexA (GSG)2mDHFR / B42 gly6rGR2 (UniProt P00375+P06536, C656G/F620S).
T9 construct: expressed in transfected cells; host or cells: S. cerevisiae FY250 with pMW106 lacZ reporter
T9 sequence (P00375 1-187): T3 sequence (P00375 1-187)
T9 sequence (P06536 524-795 F620S/C656G limits assumed): T1 sequence (P06536 524-795 F620S/C656G limits assumed)
The assay is described as follows: β-galactosidase activity assay, strain V503Y.
Source text: as §1, §2

Assay [9] concerns the target T10, LexA (GSG)2rGR2 / B42 (GSG)2eDHFR (UniProt P06536+P0ABQ4, C656G/F620S).
T10 construct: rat Glucocorticoid Receptor (aa 524-795) with point mutations; expressed in transfected cells; host or cells: S. cerevisiae FY250
T10 sequence (P06536 524-795 F620S/C656G limits assumed): T1 sequence (P06536 524-795 F620S/C656G limits assumed)
T10 sequence (P0ABQ4 1-159): T1 sequence (P0ABQ4 1-159)
The assay is described as follows: β-galactosidase activity assay, strain V510Y.
Source text: as §1, §2

`C[C@@H]1C[C@H]2C3CCC4=CC(=O)C=C[C@]4(C)[C@@]3(F)[C@@H](O)C[C@]2(C)[C@@]1(O)C(=O)NCCSCCCCCCCCSCC[C@H](NC(=O)c1ccc(N(C)Cc2cnc3nc(N)nc(N)c3n2)cc1)C(=O)O` (stereo partly shown) [D8M]: the B-gal activity was 2734 β-galactosidase units in [1]; 7012 β-galactosidase units in assay [2]; −129 β-galactosidase units in assay [3]; 24 β-galactosidase units in assay [4]; −27 β-galactosidase units in assay [5]; 5210 β-galactosidase units in [6]. For the same compound, the B-gal activity is reported as 10568 β-galactosidase units in assay [7], 2532 β-galactosidase units at LexA rGR2 / B42 eDHFR, 45 β-galactosidase units in assay [8] and 3163 β-galactosidase units in [9].
